According to US20140357512A1, “HISTONE DEACETYLASE (HDAC) BIOMARKERS IN MULTIPLE MYELOMA” (priority 2013, published 2014):

Tested on: human myeloma cell line MM.1S
Assay: SILAC acetylated-lysine peptide profiling, HDAC inhibitor vs DMSO (light/heavy ratio)
Type: cell-based
From the text: An embodiment of the invention comprises utilizing the SILAC method in order to quantitate changes in protein expression between two or more populations of cells. The SILAC method is a technique based on mass spectrometry that detects differences in protein abundance among samples using non-radioactive isotopic labeling. The SILAC method is known in the art, and described in detail in Ong et al., “Stable Isotope Labeling by Amino Acids in Cell Culture, SILAC, as a Simple and Accurate Approach to Expression Proteomics”, Molecular & Cellular Proteomics, vol. 1, pp. 376-386 (2002), which is incorporated herein by reference in its entirety.
Briefly, the SILAC method involves growing two populations of cells in cell culture. The first population of cells is grown in growth media containing normal amino acids (“normal media”). The second population of cells is grown in media lacking a standard essential amino acid (such as lysine), but is then supplemented with a non-radioactive, isotopically labeled form of that essential amino acid (such as lysine labeled with ^13C atoms, rather than normal ^12C atoms), which is called “heavy media”. When the two populations of cells are each growing in the medium, they incorporate the amino acids into all of their proteins. The growth of cells maintained in the heavy media is no different from that in normal media. All peptides containing the heavy amino acids are heavier than their normal counterparts. The cells from each of the two populations of cells are lysed. The lysates from each of the two cell populations are then combined. The combined cell lysates are then analyzed by mass spectrometry. Pairs of chemically identical peptides of different stable isotope composition can be differentiated in a mass spectrometer due to their difference in mass. The ratio of peak intensities in the mass spectrum for such peptide pairs reflects the abundance ratio for the two proteins.
This example describes SILAC studies that were performed to compare the effects of three different HDAC inhibitors (Compound A, Compound B, and tubastatin A) to a control on a human multiple myeloma cell line. The HDAC inhibitors were also compared amongst themselves to determine differences in their effects.
A human myeloma cell line MM.1S was grown using either ^12C (light) or ^13C (heavy) lysine containing culture medium. The “heavy” cells were treated with DMSO as the control, and the “light” cells were treated with a single HDAC inhibitor at 37° C. for 6 hours. The heavy and light cells were lysed, and the lysates were mixed in 1:1 ratio and digested with the protease trypsin. The acetylated lysine containing peptides (due to the action of the HDAC inhibitor) in the digested peptide pool were captured by a non-specific anti-acetylated lysine antibody cocktail (the antibodies identify both light and heavy acetylated peptides), and subjected to mass spectrometry analysis in order to identify thousands of individual peptides.
Thousands of peptides were identified in pairs (^12C and ^13C) due to their known mass differences. The amino acid sequence and quantitative ratio (Light/Heavy) of a given peptide in two differentially treated cell lysates were then determined and annotated with their possible protein (gene) sources.
As stated above, three HDAC inhibitors (Compound A, Compound B, and Tubastatin A) were used. Thus, the SILAC method was performed three times, with a different HDAC inhibitor compared to a control each time. Accordingly, there are three pairs of quantitative data in the table below, i.e., Compound A:DMSO, Compound B:DMSO, and Tubastatin A:DMSO. A cut-off of 1.30 fold of change (increase or decrease) was then used to determine “changed” or “+” in the table, and any peptides with a fold of change less than 1.3 fold were determined to be “unchanged” or “0” in the table. Those peptides that were not identified were marked as “NA” in the table. […]

## CN1CCc2c(c3ccccc3n2Cc2ccc(C(=O)NO)cc2)C1 [Tub A]
Isoform 2 of Fibronectin type-III domain-containing protein 3A [507], FNDC3A, drug:DMSO
  light to heavy ratio (L/H ratio) of acetylated peptide SNPSEVVEFTTCPDK(ac)PGIPVKPSVK (SEQ ID NO: 336): 0.00 log 2
Isoform 2 of Nuclear factor related to kappa-B-binding protein [1262], gene NFRKB, inhibitor:DMSO
  light to heavy ratio (L/H ratio) of acetylated peptide LIAGNK(ac)PVSFLTAQQLQQLQQQGQATQVR (SEQ ID NO: 512): 0.00 log 2
Isoform 2 of Spliceosome RNA helicase DDX39B [349], SNORD84, DDX39B, drug:DMSO
  light to heavy ratio (L/H ratio) of acetylated peptide YQQFK(ac)DFQR (SEQ ID NO: 258): −0.38 log 2
Isoform 3 of Proline-rich protein 12 [1223], gene PRR12, drug:DMSO
  light to heavy ratio (L/H ratio), log 2 scale, acetylated peptide LEPLK(ac)PLK (SEQ ID NO: 772): 0.00
Isoform 3 of Reticulon-3 [217], gene RTN3, drug:DMSO
  light to heavy ratio (L/H ratio), log 2 scale, acetylated peptide DQTK(ac)SIVEK (SEQ ID NO: 810): 0.00
Isoform 5 of Transcriptional regulator ATRX [812], ATRX, drug:DMSO
  light to heavy ratio (L/H ratio) of acetylated peptide VQDGLSDIAEK(ac)FLK (SEQ ID NO: 326): 0.00 log 2
Isoform CNPI of 23-cyclic-nucleotide 3-phosphodiesterase [177], gene CNP, inhibitor:DMSO
  light to heavy ratio (L/H ratio) of acetylated peptide K(ac)SSETLR (SEQ ID NO: 601): 0.00 log 2
Isoform Heart of ATP synthase subunit gamma mitochondrial [55], ATP5C1, drug:DMSO
  light to heavy ratio (L/H ratio) of acetylated peptide MVAAAK(ac)YAR (SEQ ID NO: 324): 0.00 log 2
Isoform Mitochondrial of Fumarate hydratase mitochondrial [66], gene FH, inhibitor:DMSO
  light to heavy ratio (L/H ratio) of acetylated peptide VPNDK(ac)YYGAQTVR (SEQ ID NO: 625): 0.00 log 2
Isoform Short of Heterogeneous nuclear ribonucleoprotein U [546], HNRNPU, drug:DMSO
  light to heavy ratio (L/H ratio) of acetylated peptide APQCLGK(ac)FIEIAAR (SEQ ID NO: 338): 0.00 log 2
Isoform Short of Heterogeneous nuclear ribonucleoprotein U [651], HNRNPU, drug:DMSO
  light to heavy ratio (L/H ratio) of acetylated peptide LLEQYK(ac)EESK (SEQ ID NO: 302): −0.57 log 2
K(ac)HPDASVNFSEFSK (SEQ ID NO: 164), Similar to nonhistone chromosomal protein HMG-1 [30], HMGB1P4
  light to heavy ratio (L/H ratio) of acetylated peptide, log 2 scale: −0.39
K(ac)TFEINPR (SEQ ID NO: 171), Endoplasmin [683], HSP90B1
  light to heavy ratio (L/H ratio) of acetylated peptide, log 2 scale: −0.73
K(ac)YEDICPSTHNMDVPNIK (SEQ ID NO: 152), Eukaryotic translation initiation factor 5A-2 [68], EIF5A2
  light to heavy ratio (L/H ratio) of acetylated peptide, log 2 scale: −0.56
KLPK(ac)NEPQNATGAPGR (SEQ ID NO: 198), Ras-related protein Rab-5C [184], RAB5C
  light to heavy ratio (L/H ratio) of acetylated peptide, log 2 scale: 0.38
KRR1 small subunit processome component homolog [11], gene KRR1, drug:DMSO
  light to heavy ratio (L/H ratio), log 2 scale, acetylated peptide (ac)ASPSLERPEK(ac)GAGK (SEQ ID NO: 801): 0.00
L-lactate dehydrogenase B chain [82], LDHB, drug:DMSO
  light to heavy ratio (L/H ratio) of acetylated peptide IVADK(ac)DYSVTANSK (SEQ ID NO: 317): 0.51 log 2
LAK(ac)LSDGVAVLK (SEQ ID NO: 484), 60 kDa heat shock protein mitochondrial [396], HSPD1
  L/H ratio of acetylated peptide: 0.00 log 2
LENK(ac)MEGIGLK (SEQ ID NO: 131), PRA1 family protein 3 [151], ARL6IP5
  light to heavy ratio (L/H ratio) of acetylated peptide, log 2 scale: 0.67
LIK(ac)VHLDK (SEQ ID NO: 215), 40S ribosomal protein S7 [155], RPS7
  light to heavy ratio (L/H ratio) of acetylated peptide, log 2 scale: −0.50
LIYDTK(ac)GR (SEQ ID NO: 213), 40S ribosomal protein S4 X isoform [106], RPS4X
  light to heavy ratio (L/H ratio) of acetylated peptide, log 2 scale: −0.40
LMAN1 [346], log 2 scale, drug vs DMSO
  L/H ratio of acetylated peptide IHLEIK(ac)QLNR (SEQ ID NO: 57): −0.56
LMNB1 [261], log 2 scale, drug vs DMSO
  L/H ratio of acetylated peptide LYK(ac)EELEQTYHAK (SEQ ID NO: 4): 0.46
LMNB1 [271], log 2 scale, drug vs DMSO
  L/H ratio of acetylated peptide LYKEELEQTYHAK(ac)LENAR (SEQ ID NO: 58): −0.73
LNEQK(ac)LAQLEEAK (SEQ ID NO: 133), ATP synthase subunit b mitochondrial [131], ATP5F1
  light to heavy ratio (L/H ratio) of acetylated peptide, log 2 scale: 0.72
LOC390956 [71], log 2 scale, drug vs DMSO
  L/H ratio of acetylated peptide GFGYK(ac)GSCFHR (SEQ ID NO: 59): −0.45
LSLDK(ac)VFR (SEQ ID NO: 226), Stomatin-like protein 2 [145], STOML2
  light to heavy ratio (L/H ratio) of acetylated peptide, log 2 scale: −0.41
LTALDYHNPAGFNCK(ac)DETEFR (SEQ ID NO: 137), UPF0568 protein C14orf166 [20], C14orf166
  light to heavy ratio (L/H ratio) of acetylated peptide, log 2 scale: 0.41
LTEAKPVDK(ac)VK (SEQ ID NO: 221), cDNA FLJ60124 highly similar to Mitochondrial dicarboxylate carrier [142], SLC25A10
  light to heavy ratio (L/H ratio) of acetylated peptide, log 2 scale: −0.50
LTLSALLDGK(ac)NVNAGGHK (SEQ ID NO: 466), Voltage-dependent anion-selective channel protein 1 [266], VDAC1
  L/H ratio of acetylated peptide: 0.00 log 2
LVSEK(ac)LASYQAAR (SEQ ID NO: 476), Isoform 2 of Myc proto-oncogene protein [163], MYC
  L/H ratio of acetylated peptide: 0.00 log 2
Laminin receptor-like protein LAMRL5 [89], SNORA6, RPSAP15, SNORA62, RPSA, drug:DMSO
  light to heavy ratio (L/H ratio) of acetylated peptide AVLK(ac)FAAATGATPIAGR (SEQ ID NO: 262): −0.53 log 2
Leucine-rich PPR motif-containing protein mitochondrial [1332], gene LRPPRC, inhibitor:DMSO
  light to heavy ratio (L/H ratio) of acetylated peptide SYVSEK(ac)DVTSAK (SEQ ID NO: 628): 0.00 log 2
MAN2A1 [373], log 2 scale, drug vs DMSO
  L/H ratio of acetylated peptide ICCQFDFK(ac)R (SEQ ID NO: 60): −0.69
MEAF6 [69:74], log 2 scale, drug vs DMSO
  L/H ratio of acetylated peptide YLTNQK(ac)NSNSK(ac)NDR (SEQ ID NO: 17): 0.58
MKENQK(ac)HIYYITGETK (SEQ ID NO: 169), Isoform 2 of Heat shock protein HSP 90-alpha [611], HSP90AA1
  light to heavy ratio (L/H ratio) of acetylated peptide, log 2 scale: −0.46
MLL3 [2809:2814], log 2 scale, drug vs DMSO
  L/H ratio of acetylated peptide TLVLSDK(ac)HSPQK(ac)K (SEQ ID NO: 5): 0.67
MPTPVIK(ac)AFGILK (SEQ ID NO: 154), Isoform Mitochondrial of Fumarate hydratase mitochondrial [94], FH
  light to heavy ratio (L/H ratio) of acetylated peptide, log 2 scale: −0.55
MSN [165], log 2 scale, drug vs DMSO
  L/H ratio of acetylated peptide LNK(ac)DQWEER (SEQ ID NO: 10): −0.38
Mitochondrial trifunctional protein beta subunit (Fragment) [100], gene HADHB, inhibitor:DMSO
  light to heavy ratio (L/H ratio) of acetylated peptide LSLLSK(ac)FR (SEQ ID NO: 564): 0.00 log 2
NAD(P) transhydrogenase mitochondrial [70], NNT, drug:DMSO
  light to heavy ratio (L/H ratio) of acetylated peptide EIFQNEK(ac)R (SEQ ID NO: 288): 0.55 log 2
NAD(P) transhydrogenase mitochondrial [403], NNT, drug:DMSO
  light to heavy ratio (L/H ratio) of acetylated peptide AISPDK(ac)DNFYFDVK (SEQ ID NO: 284): 0.40 log 2
NATVGQSVLNIK(ac)YK (SEQ ID NO: 194), Peroxisome biogenesis factor 2 [84], PEX2
  light to heavy ratio (L/H ratio) of acetylated peptide, log 2 scale: 0.51
NCMTDLLAK(ac)LEAK (SEQ ID NO: 201), Receptor expression-enhancing protein 5 [25], REEP5
  light to heavy ratio (L/H ratio) of acetylated peptide, log 2 scale: 0.49
